Source: patent publication US20190307820A1, “COMPOSITIONS AND METHODS OF USING STAT1/3 INHIBITORS WITH ONCOLYTIC HERPES VIRUS” (priority 2016, published 2019)

Assays:
[1] = tested on: G207 in U87 and MG co-culture; experiment: G207 replication in glioma-microglia co-cultures treated with C16; assay type: cell-based, HSV-1; conditions: 0.5 μM of C16
Protocol: FIG. 12B depicts an electrophoresis gel showing total proteins that were harvested from G2O7 infected microglia cells at 24 hours post treatment with either 1 μM of C16, 1 μM of Bay11, or 100 μM of AG. ICP27, ICP4, and […] expression was measured by western blot assay. U87 and MG co-culture were pretreated with 0.5 μM of C16 for 1 hour.
FIG. 12D is a bar graph showing G207 viral replication increasing by 33% in glioma-microglia co-cultures treated with C16.
U87 (5×104) alone or U87+microglia co-culture (5×104+5×104) or BV2 microglia cells (5×104) alone were seeded into a 24-well plate. After overnight incubation (to allow the cells to attach), cells were pretreated with indicated concentration of NFkB inhibitor, Bay-11 (Santa Cruz, Canada) or an indicated concentration of imidazolo-oxindole derivative C16 (Milipore, Canada) or vehicle for 1-2 hours. The cells were then infected with oHSV-1 (G207 or HrR3) virus at a MOI of 1 in presence of chemical inhibitors for another 2 days. The viruses were harvested and titrated in vero cells by plaque forming assay in 12-well plates by triplicates.
The effects of a PKR inhibitor (C16), a NFkappaB inhibitor (Bay11), and an iNOS inhibitor (aminoguanidine hydrochloride) were tested on G207 replication in BV2 cells (Example 15). […]

[2] = molecular target: T1, STAT3 (Homo sapiens, UniProt P40763); assay type: cell-based
T1 construct: Extracted protein was then subjected to western blot assay; endogenous in cells; host or cells: U87 cells, with or without HrR3 infection
Protocol: (FIG. 5A) U87 cells were treated with HrR3 at a MOI of 5 and indicated concentration of nifuroxazide for 6 hours. Extracted protein was then subjected to western blot assay. (FIG. 5B) U87 cells were treated with indicated concentration of HrR3 or nifuroxazide or stattic or in combination for 72 hours. Cytotoxicity was measured by MTT assay. (FIG. 5C) Relative mRNA level (2^−ΔΔCT) is shown. Data are presented as mean SD, *P<0.05 vs corresponding vehicle treatment.
FIG. 19A and FIG. 19B, U87 cells (A) or CT26 cells (B) were treated with the indicated concentrations of HrR3 or NF or a combination. Total protein was extracted after 24 hours and subjected to western blot analysis. Band intensity was measured using Image J software and normalized to β-actin. Samples were run in triplicate and data are as means±S.E. Statistically significant differences are indicated by P<0.05 or P<0.01. FIG. 19C, Mice subcutaneously bearing U87 tumors were intratumorally injected with a single dose of HrR3 virus (1×10^6 PFU) and/or peritoneally injected doses of NF as indicated. Tumors were harvested on day 10 post treatment and total protein was extracted from a mouse of each treatment group and subjected to western blot analysis in triplicate. Results are reported as means±S.E.
Expression of key regulator of the Type1 interferon signaling, STAT1 and STAT3, was determined in nifuroxazide treated oHSV-1 infected U87 cells.
NF is a known inhibitor of STAT1 and STAT3. To evaluate the underlying molecular mechanism of the anti-tumour effect of the NF and oHSV-1 combination, the STAT1 and STAT3 status in U87 cells (FIG. 19A) and CT26 cells (FIG. 19B) cells was determined after an overnight treatment with NF and oncolytic viruses.

[3] = tested on: 9L cells; experiment: MTT cytotoxicity assay, 9L cells; assay type: cell-based; conditions: 72 hours, read-out: Inhibitory concentration 50% (IC50)
Protocol: FIGS. 1A-1B are graphs that show an anti-tumor effect of nifuroxazide. (FIG. 1A) Cells were treated with indicated concentration of nifuroxazide for 72 hours. Cytotoxicity was measured by using MTT assay. (FIG. 1B) Subcutaneously U87 tumor bearing mice were peritoneally injected with indicated doses of nifuroxazide. Tumor size was measured using calipers at day 7 post nifuroxazide treatment.
In this example, the antitumor effect of nifuroxazide is evaluated in different tumor cells. Cells were treated with nifuroxazide for 72 hours (FIG. 1A). […] To verify the anti-tumor efficacy of nifuroxazide in vivo, animals with subcutaneous U87 tumor implants were injected in the peritoneum with vehicle, 1 mg/kg nifuroxazide and 50 mg/kg nifuroxazide. […] Tumor volume was reduced around 25% and 60% after 7 days treatment with 1 mg/kg nifuroxazide and 50 mg/kg nifuroxazide respectively (FIG. 1B).
Cells were seeded in a 96-well plate at a density of 1×104 (U87). After overnight incubation, cells were treated with only vehicle or indicated MOI of virus or indicated concentration of drugs or reagents. After 2 to 3 days of treatment cell viability was measured by MTT assay (Sigma, Canada) according to the manufacturer's instruction. […] After overnight incubation with lysis buffer, cell viability was measured at 595 nm using a plate reader (Envision 2103 Multilabel reader, Perkin Elmer).

[4] = tested on: ICP27 mRNA; experiment: RT-qPCR of ICP27 mRNA in HrR3 infected U87 cells; assay type: cell-based, HSV-1; conditions: HrR3 MOI-5, 6 hours
Protocol: FIGS. 4A-4C show the effect of nifuroxazide on HSV-1 gene expression. (FIG. 4A) U87 cells were treated with HrR3 viruses at a MOI-3 and indicated doses of nifuroxazide. 24 hours post infected, total protein was extracted and subjected to western blot analysis. (FIG. 4B) U87 cells were treated with HrR3 at a MOI-5 and indicated concentration of nifuroxazide for 6 hours. ICP27 mRNA level was detected by RT-qPCR. (FIG. 4C) Relative mRNA level (2^−ΔΔCT) is shown. Data are presented as mean SD, *P<0.05 vs corresponding vehicle treatment.
In this example, the underlying mechanism of nifuroxazide mediated oHSV-1 replication enhancement was examined. The effect of nifuroxazide on viral immediate early gene, ICP27 and ICP4 expression was established by Western blot analysis.

T1 sequence (P40763 whole entry): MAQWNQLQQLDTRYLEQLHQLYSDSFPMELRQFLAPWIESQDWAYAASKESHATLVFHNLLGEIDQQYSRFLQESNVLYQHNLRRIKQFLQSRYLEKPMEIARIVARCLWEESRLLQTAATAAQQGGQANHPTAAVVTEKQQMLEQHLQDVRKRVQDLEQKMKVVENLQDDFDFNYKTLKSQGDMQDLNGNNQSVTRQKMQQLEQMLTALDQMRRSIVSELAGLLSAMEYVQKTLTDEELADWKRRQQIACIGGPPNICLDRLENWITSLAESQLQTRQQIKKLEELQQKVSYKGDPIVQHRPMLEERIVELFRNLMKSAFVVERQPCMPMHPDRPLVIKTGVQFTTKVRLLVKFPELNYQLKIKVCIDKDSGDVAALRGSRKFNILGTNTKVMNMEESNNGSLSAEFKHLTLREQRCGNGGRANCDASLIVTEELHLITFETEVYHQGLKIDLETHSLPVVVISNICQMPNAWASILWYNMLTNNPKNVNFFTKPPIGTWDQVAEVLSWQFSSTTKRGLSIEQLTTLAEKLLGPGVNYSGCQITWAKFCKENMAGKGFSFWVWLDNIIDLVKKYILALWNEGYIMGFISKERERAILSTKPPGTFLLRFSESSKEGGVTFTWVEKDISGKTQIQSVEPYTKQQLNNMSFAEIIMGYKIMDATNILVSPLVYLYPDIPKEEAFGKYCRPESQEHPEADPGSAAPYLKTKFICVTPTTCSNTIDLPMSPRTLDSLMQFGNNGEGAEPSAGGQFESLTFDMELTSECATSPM

SMILES	G207 viral replication increased [1]	HrR3 induced upregulation of STAT3 phosphorylation ([2]; 24 hours)	STAT3 phosphorylation ([2]; HrR3 MOI of 5, 6 hours)	phosphorylation of STAT3 ([2]; NF alone, 24 hours)	IC50 [3]	ICP27 mRNA expression [4]
O=C1Nc2ccc3ncsc3c2/C1=C/c1c[nH]cn1 [C16, 6,8-Dihydro-8-(1H-imidazol-5-ylmethylene)-7H-pyrrolo[2,3-g]benzothiazol-7-one]	33%	–	–	–	–	–
O=C(N/N=C/c1ccc([N+](=O)[O-])o1)c1ccc(O)cc1 [nifuroxazide, Benzoic acid, 4-hydroxy-, [(5-nitro-2-furanyl)metylene]hydrazide]	–	effectively suppressed	dose dependent STAT1 and STAT3 phosphorylation reduction	dose dependent inhibition	~27 µM	up-regulation of ICP27 mRNA expression
